Target: T1, SIRT1 (Homo sapiens, UniProt Q96EB6)
T1 sequence (Q96EB6 1-747): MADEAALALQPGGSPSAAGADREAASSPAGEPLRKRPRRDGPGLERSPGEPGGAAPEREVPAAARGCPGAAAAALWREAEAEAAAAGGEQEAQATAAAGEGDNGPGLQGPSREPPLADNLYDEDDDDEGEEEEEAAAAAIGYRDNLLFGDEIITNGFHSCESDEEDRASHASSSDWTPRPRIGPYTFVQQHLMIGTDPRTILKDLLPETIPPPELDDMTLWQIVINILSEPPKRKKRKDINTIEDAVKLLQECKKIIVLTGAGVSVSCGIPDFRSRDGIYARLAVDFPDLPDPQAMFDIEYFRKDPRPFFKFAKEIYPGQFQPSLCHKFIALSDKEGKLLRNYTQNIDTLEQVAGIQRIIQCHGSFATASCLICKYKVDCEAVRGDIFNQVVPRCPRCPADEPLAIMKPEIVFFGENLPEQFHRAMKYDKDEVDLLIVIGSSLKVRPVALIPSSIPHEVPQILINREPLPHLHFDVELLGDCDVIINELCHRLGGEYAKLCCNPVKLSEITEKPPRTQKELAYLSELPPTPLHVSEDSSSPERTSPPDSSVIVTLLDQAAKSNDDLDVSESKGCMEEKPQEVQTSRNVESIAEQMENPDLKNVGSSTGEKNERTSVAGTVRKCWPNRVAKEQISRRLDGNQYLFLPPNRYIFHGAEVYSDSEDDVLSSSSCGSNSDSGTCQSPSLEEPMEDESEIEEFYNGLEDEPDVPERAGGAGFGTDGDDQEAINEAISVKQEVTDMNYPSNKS
Assay: Trp mass spectrometry assay of SIRT1 activation
Type: biochemical
Settings: Trp peptide Ac-R-H-K-K(Ac)-W-NH2 0.5 μM, 120 μM βNAD+, 10 nM SIRT1, 25 min, 25° C.

SMILES | TRP Activity (EC1.5, concentration of compound required to increase SIRT1 activity by 50% over control) | TRP MAX RESP (percent maximum fold activation relative to control)
O=C(Nc1ccc(OC[C@@H](O)CO)nc1)N1c2nc(-c3cccc(C(F)(F)F)c3)ncc2N2CCC[C@H]1C2 [Example 101, (9S)—N-(6-((S)-2,3-dihydroxypropoxy)pyridin-3-yl)-2-(3-(trifluoromethyl)phenyl)-8,9-dihydro-6H-5,9-methanopyrimido[4,5-b][1,4]diazocine-10(7H)-carboxamide] | A (EC1.5<1 μM) | A (Fold activation ≥150%)
Cc1ccc2c(NC(=O)N3c4nc(C(=O)N[C@H](C)C(F)(F)F)nc(C)c4N4CC[C@H]3C4)n[nH]c2n1 [Example 60, (8S)-4-methyl-N9-(6-methyl-1H-pyrazolo[3,4-b]pyridin-3-yl)-N2-((R)-1,1,1-trifluoropropan-2-yl)-7,8-dihydro-5,8-methanopyrimido[4,5-b][1,4]diazepine-2,9(6H)-dicarboxamide] | B (EC1.5 1-25 μM) | A (Fold activation ≥150%)
Cc1ccc2c(NC(=O)N3c4nc(C(=O)NC(CO)C(F)(F)F)ncc4N4CCC[C@H]3C4)n[nH]c2n1 (single isomer, unassigned) [Example 66] | A (EC1.5<1 μM) | A (Fold activation ≥150%)
Cc1nc(-c2cccc(C(F)(F)F)c2)nc2c1N1CCC[C@@H](C1)N2C(=O)Nc1cnc(OC[C@H](O)CO)nc1 [Example 106, (9S)—N-(2-((R)-2,3-dihydroxypropoxy)pyrimidin-5-yl)-4-methyl-2-(3-(trifluoromethyl)phenyl)-8,9-dihydro-6H-5,9-methanopyrimido[4,5-b][1,4]diazocine-10(7H)-carboxamide] | A (EC1.5<1 μM) | A (Fold activation ≥150%)
O=C(Nc1ccccn1)N1c2nc(-c3cccc(C(F)(F)F)c3)ncc2N2CC[C@H]1C2 [Example 3, (8S)—N-(pyridin-2-yl)-2-(3-(trifluoromethyl)phenyl)-7,8-dihydro-5,8-methano pyrimido[4,5-b][1,4]diazepine-9(6H)-carboxamide] | – | A (Fold activation ≥150%)
O=C(Nc1cnnc(OC[C@@H](O)CO)c1)N1c2nc(-c3cccc(C(F)(F)F)c3)ncc2N2CCC[C@H]1C2 [Example 108, (9S)—N-(6-((S)-2,3-dihydroxypropoxy)pyridazin-4-yl)-2-(3-(trifluoromethyl)phenyl)-8,9-dihydro-6H-5,9-methanopyrimido[4,5-b][1,4]diazocine-10(7H)-carboxamide] | A (EC1.5<1 μM) | A (Fold activation ≥150%)
O=C(Nc1ccnc(OC[C@@H](O)CO)c1)N1c2nc(-c3cccc(C(F)(F)F)c3)ncc2N2CCC[C@H]1C2 [Example 85, (9S)—N-(2-((S)-2,3-dihydroxypropoxy)pyridin-4-yl)-2-(3-(trifluoromethyl)phenyl)-8,9-dihydro-6H-5,9-methanopyrimido[4,5-b][1,4]diazocine-10(7H)-carboxamide] | A (EC1.5<1 μM) | A (Fold activation ≥150%)
Cc1nc(-c2cccc(C(F)(F)F)c2)nc2c1N1CCC[C@@H](C1)N2C(=O)Nc1ccc(OC[C@H](O)CO)cn1 [Example 113, (9S)—N-(5-((R)-2,3-dihydroxypropoxy)pyridin-2-yl)-4-methyl-2-(3-(trifluoromethyl)phenyl)-8,9-dihydro-6H-5,9-methanopyrimido[4,5-b][1,4]diazocine-10(7H)-carboxamide] | A (EC1.5<1 μM) | A (Fold activation ≥150%)
Cc1ncc(-c2ccnc(NC(=O)N3c4nc(C(=O)N[C@H](C)C(F)(F)F)ncc4N4CCC[C@H]3C4)c2)o1 [Example 70, (9S)—N10-(4-(2-methyloxazol-5-yl)pyridin-2-yl)-N2-((R)-1,1,1-trifluoropropan-2-yl)-8,9-dihydro-6H-5,9-methanopyrimido[4,5-b][1,4]diazocine-2,10(7H)-dicarboxamide] | A (EC1.5<1 μM) | A (Fold activation ≥150%)
O=C(Nc1cncc(OC[C@@H](O)CO)c1)N1c2nc(-c3cccc(C(F)(F)F)c3)ncc2N2CCC[C@H]1C2 [Example 94, (9S)—N-(5-((S)-2,3-dihydroxypropoxy)pyridin-3-yl)-2-(3-(trifluoromethyl)phenyl)-8,9-dihydro-6H-5,9-methanopyrimido[4,5-b][1,4]diazocine-10(7H)-carboxamide] | A (EC1.5<1 μM) | A (Fold activation ≥150%)

Results, then the molecule that gave them:

TRP Activity (EC1.5, concentration of compound required to increase SIRT1 activity by 50% over control) | TRP MAX RESP (percent maximum fold activation relative to control) | SMILES
B (EC1.5 1-25 μM) | A (Fold activation ≥150%) | O=C(Nc1cnc(OC[C@H](O)CO)nc1)N1c2nc(-c3cccc(C(F)(F)F)c3)ncc2N2CC[C@H]1C2 [Example 49, (8S)—N-(2-((R)-2,3-dihydroxypropoxy)pyrimidin-5-yl)-2-(3-(trifluoromethyl)phenyl)-7,8-dihydro-5,8-methanopyrimido[4,5-b][1,4]diazepine-9(6H)-carboxamide]
B (EC1.5 1-25 μM) | A (Fold activation ≥150%) | Cc1ccc(-c2ncc3c(n2)N(C(=O)Nc2cccnc2)[C@H]2CCN3C2)cn1 [Example 5, (8S)-2-(6-methylpyridin-3-yl)-N-(pyridin-3-yl)-7,8-dihydro-5,8-methanopyrimido[4,5-b][1,4]diazepine-9(6H)-carboxamide]
A (EC1.5<1 μM) | – | O=C(Nc1ccccn1)N1c2nc(-c3cccc(C(F)(F)F)c3)ncc2N2CCC[C@H]1C2 [Example 86, (9S)—N-(pyridin-2-yl)-2-(3-(trifluoromethyl)phenyl)-8,9-dihydro-6H-5,9-methanopyrimido[4,5-b][1,4]diazocine-10(7H)-carboxamide]
A (EC1.5<1 μM) | A (Fold activation ≥150%) | O=C(Nc1cccc(OC[C@H](O)CO)n1)N1c2nc(-c3cccc(C(F)(F)F)c3)ncc2N2CCC[C@H]1C2 [Example 89, (9S)—N-(6-((R)-2,3-dihydroxypropoxy)pyridin-2-yl)-2-(3-(trifluoromethyl)phenyl)-8,9-dihydro-6H-5,9-methanopyrimido[4,5-b][1,4]diazocine-10(7H)-carboxamide]
B (EC1.5 1-25 μM) | – | CN(C)c1cc(-c2ncc3c(n2)N(C(=O)Nc2ccccn2)[C@H]2CCN3C2)ccn1 [Example 11, (8S)-2-(2-(dimethylamino)pyridin-4-yl)-N-(pyridin-2-yl)-7,8-dihydro-5,8-methano pyrimido[4,5-b][1,4]diazepine-9(6H)-carboxamide]
B (EC1.5 1-25 μM) | A (Fold activation ≥150%) | O=C(Nc1cnc(OC[C@@H](O)CO)nc1)N1c2nc(-c3cccc(C(F)(F)F)c3)ncc2N2CC[C@H]1C2 [Example 53, (8S)—N-(2-((S)-2,3-dihydroxypropoxy)pyrimidin-5-yl)-2-(3-(trifluoromethyl)phenyl)-7,8-dihydro-5,8-methanopyrimido[4,5-b][1,4]diazepine-9(6H)-carboxamide]
B (EC1.5 1-25 μM) | – | Cc1cc(-c2ncc3c(n2)N(C(=O)Nc2ccccn2)[C@H]2CCN3C2)ccn1 [Example 8, (8S)-2-(2-methylpyridin-4-yl)-N-(pyridin-2-yl)-7,8-dihydro-5,8-methanopyrimido[4,5-b][1,4]diazepine-9(6H)-carboxamide]
B (EC1.5 1-25 μM) | A (Fold activation ≥150%) | O=C(Nc1cc(OC[C@H](O)CO)ncn1)N1c2nc(-c3cccc(C(F)(F)F)c3)ncc2N2CC[C@H]1C2 [Example 16, (8S)—N-(6-((R)-2,3-dihydroxypropoxy)pyrimidin-4-yl)-2-(3-(trifluoromethyl)phenyl)-7,8-dihydro-5,8-methanopyrimido[4,5-b][1,4]diazepine-9(6H)-carboxamide]
A (EC1.5<1 μM) | A (Fold activation ≥150%) | O=C(Nc1ccnc(OC[C@H](O)CO)c1)N1c2nc(-c3cccc(C(F)(F)F)c3)ncc2N2CCC[C@H]1C2 [Example 90, (9S)—N-(2-((R)-2,3-dihydroxypropoxy)pyridin-4-yl)-2-(3-(trifluoromethyl)phenyl)-8,9-dihydro-6H-5,9-methanopyrimido[4,5-b][1,4]diazocine-10(7H)-carboxamide]

Reference: patent publication US20180319810A1, “SUBSTITUTED BRIDGED UREA ANALOGS AS SIRTUIN MODULATORS” (GlaxoSmithKline Intellectual Property (No.2) Limited, priority 2014, published 2018)
